Calls of active or inactive are those of the source.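 The calls were made as follows: active = lipid-stain IC50 at or below a set limit, with nuclear-stain toxicity IC50 at least five times higher; inactive = the rest.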

This passage reports IC50 and IC50 cytotoxicity (DAPI nuclear signal decrease) results from PubChem BioAssay AID651630 (Sanford-Burnham Center for Chemical Genomics, 2012).

For one test, the system named is TAG. Put plainly: triacylglycerol accumulation inhibitor potency, dose response, cell-based, panel, Nile Red and DAPI fluorescence, H9c2 (AID 651630).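 Also: cells exposed to compound overnight before fixation and staining.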 The settings on record: H9c2 cells, Nile Red TAG fluorescence, oleic acid.
A further test relates to DAPI. The test is described as above. The settings on record: H9c2 cells, DAPI nuclear fluorescence (cytotoxicity counter-readout), oleic acid.

`CCOC(=O)c1c(CSC(=N)N)n(-c2ccccc2)c2cc(Br)c(OC(C)=O)cc12`: the IC50 – broadly, the concentration needed to halve the response being measured – in the test on TAG (mean of runs) is 18 µM (inactive); in the test with TAG (run 1), 17.1 µM; in the test on TAG (run 2), 18.9 µM. For the same molecule, the figures for the IC50 cytotoxicity (DAPI nuclear signal decrease) in the test on DAPI (mean of runs), with DAPI (run 1) and in the test on DAPI (run 2) were > 25 µM (inactive), greater than 25 µM and greater than 25 µM, respectively.
Regarding `O=C(c1ccoc1)N1CCN(c2cc(-c3cccc(F)c3)nc3cc(-c4cccc(Cl)c4)nn23)CC1`, the IC50 is > 25 µM (inactive) in the test on TAG (mean of runs), greater than 25 µM with TAG (run 1) and greater than 25 µM in the test on TAG (run 2). The results for the IC50 cytotoxicity (DAPI nuclear signal decrease) in the test with DAPI (mean of runs), in the test with DAPI (run 1) and in the test on DAPI (run 2) were > 25 µM (inactive), greater than 25 µM and greater than 25 µM, respectively.
For the molecule `Cc1cc(N/N=C\c2ccc(Br)cc2)nc(-n2nc(C)cc2C)n1`, the IC50 was > 25 µM (inactive) in the test with TAG (mean of runs), greater than 25 µM in the test with TAG (run 1) and greater than 25 µM in the test with TAG (run 2). In addition, the values for the IC50 cytotoxicity (DAPI nuclear signal decrease) in the test with DAPI (mean of runs), with DAPI (run 1) and in the test on DAPI (run 2) were > 25 µM (inactive), greater than 25 µM and greater than 25 µM, respectively.
For the molecule `CC(=O)Nc1cccc(-c2ccnc3c2CC(C)(C(=O)NCc2ccc(N(C)C)cc2)O3)c1` (stereo unspecified), the values for the IC50 with TAG (mean of runs), with TAG (run 1) and in the test on TAG (run 2) were 15.1 µM (inactive), 14.7 µM and 15.5 µM, respectively. For the same molecule, the IC50 cytotoxicity (DAPI nuclear signal decrease) in the test on DAPI (mean of runs) was > 25 µM (inactive); with DAPI (run 1), greater than 25 µM; with DAPI (run 2), greater than 25 µM.
Take `COc1ccc(-c2cc(NC=O)c3ncc(-c4ccc(OC)c(OC)c4)n3c2)cc1`: the values for the half-inhibitory concentration (IC50) with TAG (mean of runs), in the test on TAG (run 1) and in the test on TAG (run 2) were 13.2 µM, 12.5 µM and 13.9 µM, respectively. In addition, the IC50 cytotoxicity (DAPI nuclear signal decrease) was greater than 25 µM with DAPI (run 1) and 5.58 µM with DAPI (run 2).
`OCCCn1c(C2CCCN2c2nc(-c3ccc(Cl)cc3)cs2)nc2cc(Cl)c(N3CCCCC3)cc21` (stereo unspecified): the concentration for half-maximal inhibition (IC50) was 24.6 µM with TAG (run 1) and greater than 25 µM in the test with TAG (run 2). The IC50 cytotoxicity (DAPI nuclear signal decrease) is > 25 µM (inactive) in the test with DAPI (mean of runs), greater than 25 µM in the test on DAPI (run 1) and greater than 25 µM with DAPI (run 2).
For the molecule `COc1cc(C#Cc2c(-c3cncn3C)n(C)c3ccc(-c4ccc5[nH]ccc5c4)cc23)cc(OC)c1`, the half-inhibitory concentration (IC50) is 4.19 µM in the test on TAG (mean of runs), 3.78 µM in the test with TAG (run 1) and 4.6 µM in the test with TAG (run 2). The IC50 cytotoxicity (DAPI nuclear signal decrease) in the test with DAPI (run 1) and with DAPI (run 2) was greater than 25 µM in each case.
On to `C[C@]12c3[nH]c4ccccc4c3CCN1C(=O)C(CC(=O)NCC13CC4CC(CC(C4)C1)C3)C[C@@H]2C(=O)N1CCCCC1` (stereo partly specified), for which the results for the IC50 with TAG (mean of runs), in the test on TAG (run 1) and with TAG (run 2) were 14.6 µM, 14.8 µM and 14.4 µM, respectively. The figures for the IC50 cytotoxicity (DAPI nuclear signal decrease) in the test on DAPI (mean of runs), with DAPI (run 1) and in the test with DAPI (run 2) were > 25 µM (inactive), greater than 25 µM and greater than 25 µM, respectively.
`Cc1ccc(NC(=O)CSc2nc3ccc(Nc4nc(N5CCOCC5)nc(N5CCOCC5)n4)cc3s2)cc1`: the concentration for half-maximal inhibition (IC50) is 3.8 µM in the test on TAG (mean of runs), 4.85 µM in the test on TAG (run 1) and 2.76 µM in the test on TAG (run 2). The IC50 cytotoxicity (DAPI nuclear signal decrease) in the test on DAPI (run 1) and in the test with DAPI (run 2) was greater than 25 µM in each case.
As to `CCOC(=O)[C@H]1[C@H]2COc3ccc(Cl)cc3[C@@H]2N2C(=O)c3cc(OC)ccc3NC(=O)[C@@]12C`, the IC50 in the test with TAG (mean of runs) is > 25 µM (inactive); in the test with TAG (run 1) it was greater than 25 µM; with TAG (run 2), greater than 25 µM. In addition, the IC50 cytotoxicity (DAPI nuclear signal decrease) is > 25 µM (inactive) in the test with DAPI (mean of runs), greater than 25 µM with DAPI (run 1) and greater than 25 µM in the test with DAPI (run 2).
As for `COc1ccccc1C1C2=C(COC2=O)Nc2cc3c(cc21)OCO3` (stereo unspecified), the results for the IC50 in the test with TAG (run 1) and with TAG (run 2) were less than 0.78 µM and greater than 25 µM, respectively. The IC50 cytotoxicity (DAPI nuclear signal decrease) in the test with DAPI (mean of runs) is > 25 µM (inactive); in the test with DAPI (run 1), greater than 25 µM; in the test with DAPI (run 2), greater than 25 µM.
For `COc1cc(-c2nc3c(c(C)nn3-c3ccccc3)c3cc(OC)c(OC)cc23)ccc1O`, the IC50 with TAG (mean of runs) was > 25 µM (inactive); with TAG (run 1) it was greater than 25 µM; in the test on TAG (run 2), greater than 25 µM. The values for the IC50 cytotoxicity (DAPI nuclear signal decrease) in the test on DAPI (mean of runs), with DAPI (run 1) and in the test with DAPI (run 2) were > 25 µM (inactive), greater than 25 µM and greater than 25 µM, respectively.
As to `O=C(CSc1nc2ccc(Nc3nc(N4CCOCC4)nc(N4CCOCC4)n3)cc2s1)Nc1ccccc1Cl`, the IC50 with TAG (mean of runs) was 8.88 µM; with TAG (run 1) it was 7.69 µM; in the test on TAG (run 2) it was 10.1 µM. Besides, the IC50 cytotoxicity (DAPI nuclear signal decrease) in the test with DAPI (mean of runs) was > 25 µM (inactive); in the test with DAPI (run 1), greater than 25 µM; in the test with DAPI (run 2), greater than 25 µM.
On to `CC(C)C[C@H]1C(=O)N2CCC[C@H]2[C@]2(O)O[C@](NC(=O)[C@@H]3C=C4c5cccc6[nH]c(Br)c(c56)CC4N(C)C3)(C(C)C)C(=O)N12` (stereo partly specified), for which the figures for the IC50 with TAG (mean of runs), with TAG (run 1) and in the test on TAG (run 2) were 6.72 µM, 6.96 µM and 6.47 µM, respectively. Besides, the IC50 cytotoxicity (DAPI nuclear signal decrease) in the test on DAPI (mean of runs) was > 25 µM (inactive); with DAPI (run 1) it was greater than 25 µM; in the test with DAPI (run 2), greater than 25 µM.
With `O=C(CC1C[C@H](C(=O)N2CCCCC2)[C@@]2(CCc3ccccc3)c3[nH]c4ccccc4c3CCN2C1=O)NCc1cccc(C(F)(F)F)c1` (stereo partly specified), the values for the IC50 in the test with TAG (mean of runs), with TAG (run 1) and with TAG (run 2) were 5.34 µM, 4.84 µM and 5.84 µM, respectively. Besides, the IC50 cytotoxicity (DAPI nuclear signal decrease) was > 25 µM (inactive) in the test with DAPI (mean of runs), greater than 25 µM with DAPI (run 1) and greater than 25 µM with DAPI (run 2).
For `Cc1ccc(NC(=O)c2nc[nH]c2C(=O)NCCCCCCNC(=O)c2[nH]cnc2C(=O)Nc2ccc(C)cc2)cc1`, the IC50 in the test on TAG (mean of runs) was 9.03 µM; with TAG (run 1), 8.97 µM; in the test on TAG (run 2), 9.09 µM. The IC50 cytotoxicity (DAPI nuclear signal decrease) in the test with DAPI (mean of runs) is > 25 µM (inactive); with DAPI (run 1), greater than 25 µM; with DAPI (run 2), greater than 25 µM.
With `CC1(C(=O)Nc2cccc(Oc3ccccc3)c2)Cc2c(-c3ccc4c(c3)OCO4)ccnc2O1` (stereo unspecified), the IC50 with TAG (mean of runs) was > 25 µM (inactive); in the test with TAG (run 1), greater than 25 µM; in the test with TAG (run 2), greater than 25 µM. In addition, the IC50 cytotoxicity (DAPI nuclear signal decrease) with DAPI (mean of runs) was > 25 µM (inactive); in the test on DAPI (run 1), greater than 25 µM; with DAPI (run 2), greater than 25 µM.
Consider `COCCNC(=O)c1cc2c(-c3ccc(Cl)cc3)nn(C)c2s1`, for which the IC50 is > 25 µM (inactive) in the test with TAG (mean of runs), greater than 25 µM in the test with TAG (run 1) and greater than 25 µM in the test with TAG (run 2). Besides, the IC50 cytotoxicity (DAPI nuclear signal decrease) was > 25 µM (inactive) with DAPI (mean of runs), greater than 25 µM with DAPI (run 1) and greater than 25 µM in the test with DAPI (run 2).
`O=C(NCCCCCCCN1CCCCCCC1)C(C1CCCCC1)C1CCCCC1`: the IC50 was 17.8 µM (inactive) in the test on TAG (mean of runs), 15.9 µM in the test on TAG (run 1) and 19.7 µM in the test on TAG (run 2). Also, the IC50 cytotoxicity (DAPI nuclear signal decrease) with DAPI (mean of runs) is > 25 µM (inactive); in the test with DAPI (run 1), greater than 25 µM; with DAPI (run 2), greater than 25 µM.
In the case of `COc1cccc(Nc2nnc(SCc3cc([N+](=O)[O-])cc4c3OCOC4)s2)c1`, the IC50 in the test on TAG (mean of runs) was > 25 µM (inactive); with TAG (run 1), greater than 25 µM; with TAG (run 2), greater than 25 µM. The figures for the IC50 cytotoxicity (DAPI nuclear signal decrease) in the test with DAPI (mean of runs), with DAPI (run 1) and in the test with DAPI (run 2) were > 25 µM (inactive), greater than 25 µM and greater than 25 µM, respectively.
Take `CCCc1cc(C(=O)N/N=C/c2ccc(CC)s2)c2ccccc2n1`: the IC50 is > 25 µM (inactive) with TAG (mean of runs), greater than 25 µM in the test with TAG (run 1) and greater than 25 µM in the test on TAG (run 2). For the same molecule, the IC50 cytotoxicity (DAPI nuclear signal decrease) with DAPI (mean of runs) is > 25 µM (inactive); with DAPI (run 1), greater than 25 µM; in the test with DAPI (run 2), greater than 25 µM.
Consider `COc1ccc(CC(=O)Nc2ccc(-c3ccc4nnc(C)n4n3)cc2)cc1OC`, for which the results for the IC50 with TAG (mean of runs), in the test on TAG (run 1) and in the test on TAG (run 2) were 16.5 µM (inactive), 15.2 µM and 17.8 µM, respectively. Besides, the values for the IC50 cytotoxicity (DAPI nuclear signal decrease) in the test with DAPI (mean of runs), with DAPI (run 1) and in the test on DAPI (run 2) were > 25 µM (inactive), greater than 25 µM and greater than 25 µM, respectively.
For the molecule `CN(C)CCCN1c2ccccc2Sc2ccc3ccccc3c21`, the IC50 with TAG (mean of runs) was > 25 µM (inactive); in the test on TAG (run 1) it was greater than 25 µM; in the test on TAG (run 2), greater than 25 µM. The IC50 cytotoxicity (DAPI nuclear signal decrease) with DAPI (mean of runs) is > 25 µM (inactive); with DAPI (run 1) it was greater than 25 µM; in the test on DAPI (run 2) it was greater than 25 µM.
Regarding `CN1CCCC(n2nc(Cc3ccc(Cl)cc3)c3ccccc3c2=O)CC1` (stereo unspecified), the IC50 was 18.3 µM (inactive) in the test with TAG (mean of runs), 24.2 µM with TAG (run 1) and 12.4 µM with TAG (run 2). Moreover, the IC50 cytotoxicity (DAPI nuclear signal decrease) is > 25 µM (inactive) with DAPI (mean of runs), greater than 25 µM in the test on DAPI (run 1) and greater than 25 µM in the test on DAPI (run 2).
On to `CC(=O)c1ccc(Oc2cc(C)nc(-n3nc(C)cc3C)n2)cc1`, for which the half-maximal inhibitory concentration (IC50) with TAG (mean of runs) is 11.5 µM; with TAG (run 1), 10.4 µM; in the test with TAG (run 2), 12.5 µM. Also, the IC50 cytotoxicity (DAPI nuclear signal decrease) in the test on DAPI (mean of runs) was > 25 µM (inactive); with DAPI (run 1), greater than 25 µM; in the test with DAPI (run 2) it was greater than 25 µM.
Regarding `Nc1cc2c(cc1Br)[nH]c(=O)c1ccccc12`, the half-inhibitory concentration (IC50) in the test on TAG (mean of runs) is 8.3 µM; in the test with TAG (run 1) it was 8.66 µM; in the test with TAG (run 2), 7.94 µM. For the same molecule, the IC50 cytotoxicity (DAPI nuclear signal decrease) is > 25 µM (inactive) with DAPI (mean of runs), greater than 25 µM in the test with DAPI (run 1) and greater than 25 µM in the test with DAPI (run 2).
